{"source": "patent US20260091050A1", "about": "“ADVANTAGEOUS ANTI-HCV COMBINATION THERAPY” (Atea Pharmaceuticals, Inc., priority 2021, published 2026)", "experiment": "Accelerated stability (40 ± 2° C./75 ± 5% RH) of Compound 1-A over 6 months", "assay_type": "physicochemical", "protocol": "Three conditions were tested: accelerated stability (40±2° C./[…]) over a 6-month time period, ambient stability (25±2° C./[…]) over a 9-month period, and stability under refrigerator conditions (5±3° C.) over a 9-month time period. The results for accelerated stability, ambient stability, and refrigerator conditions are shown in Table 23, Table 24, and Table 25, respectively."}
{"compound": "CNc1nc(N)nc2c1ncn2[C@@H]1O[C@H](CO[P@@](=O)(N[C@@H](C)C(=O)OC(C)C)Oc2ccccc2)[C@@H](O)[C@@]1(C)F", "note": "[Compound 1-A, isopropyl ((S)-(((2R,3R,4R,5R)-5-(2-amino-6-(methylamino)-9H-purin-9-yl)-4-fluoro-3-hydroxy-4-methyltetrahydrofuran-2-yl)methoxy) (phenoxy)phosphoryl)-L-alaninate hemisulfate]", "values": [{"measurement": "Appearance", "setting": "0 month", "result": "White"}, {"measurement": "Assay", "setting": "0 month", "result": 98.8, "unit": "%"}, {"measurement": "IR", "setting": "0 month", "result": "correspond"}, {"measurement": "Related Substance 1 Any other single impurity", "setting": "0 month", "result": 0.01, "unit": "%"}, {"measurement": "Related Substance 1 Total Impurities", "setting": "0 month", "result": 0.01, "unit": "%"}, {"measurement": "Water", "setting": "0 month", "result": 0.45, "unit": "%"}, {"measurement": "Appearance", "setting": "1st month", "result": "White"}, {"measurement": "Assay", "setting": "1st month", "result": 101.5, "unit": "%"}, {"measurement": "Related Substance 1 Any other single impurity", "setting": "1st month", "result": 0.02, "unit": "%"}, {"measurement": "Related Substance 1 Total Impurities", "setting": "1st month", "result": 0.02, "unit": "%"}, {"measurement": "Water", "setting": "1st month", "result": 0.21, "unit": "%"}, {"measurement": "Appearance", "setting": "3rd month", "result": "White"}, {"measurement": "Assay", "setting": "3rd month", "result": 99.6, "unit": "%"}, {"measurement": "IR", "setting": "3rd month", "result": "correspond"}, {"measurement": "Related Substance 1 Any other single impurity", "setting": "3rd month", "result": 0.01, "unit": "%"}, {"measurement": "Related Substance 1 Total Impurities", "setting": "3rd month", "result": 0.02, "unit": "%"}, {"measurement": "Water", "setting": "3rd month", "result": 0.36, "unit": "%"}, {"measurement": "Appearance", "setting": "6th month", "result": "White"}, {"measurement": "Assay", "setting": "6th month", "result": 99.5, "unit": "%"}, {"measurement": "IR", "setting": "6th month", "result": "correspond"}, {"measurement": "Related Substance 1 Any other single impurity", "setting": "6th month", "result": 0.05, "unit": "%"}, {"measurement": "Related Substance 1 Impurity F", "setting": "6th month", "result": 0.01, "unit": "%"}, {"measurement": "Related Substance 1 Total Impurities", "setting": "6th month", "result": 0.08, "unit": "%"}, {"measurement": "Related Substance 2 Impurity G", "setting": "6th month", "result": "no detection"}, {"measurement": "Water", "setting": "6th month", "result": 0.41, "unit": "%"}, {"measurement": "Chemical stability (overall conclusion)", "setting": "accelerated, ambient and refrigerator studies", "result": "very chemically stable"}]}
